Assay results published in PubChem BioAssay (NCI).
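These data come from cells grown in 96-well plates and exposed to compound for 48 hours at five concentrations. Abbreviation: GI50, concentration required for 50% inhibition of growth. Definition used: TGI = concentration required for complete inhibition of growth.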

Legend:
Experiment in all cases: NCI anticancer screen, dose series, 48 h
CCRF-CEM leukemia = system: CCRF-CEM leukemia
PC-3 prostate = system: PC-3 prostate
A498 renal = system: A498 renal
NCI-H460 lung = system: NCI-H460 lung
UACC-257 melanoma = system: UACC-257 melanoma
SF-295 CNS = system: SF-295 CNS
MDA-MB-435 = system: MDA-MB-435
CAKI-1 renal = system: CAKI-1 renal
NCI-H226 lung = system: NCI-H226 lung
HCT-116 colon = system: HCT-116 colon

SMILES | GI50 (CCRF-CEM leukemia) [µM] | TGI (CCRF-CEM leukemia) [µM] | GI50 (PC-3 prostate) [µM] | TGI (PC-3 prostate) [µM] | GI50 (A498 renal) [µM] | TGI (A498 renal) [µM] | GI50 (NCI-H460 lung) [µM] | TGI (NCI-H460 lung) [µM] | GI50 (UACC-257 melanoma) [µM] | TGI (UACC-257 melanoma) [µM] | GI50 (SF-295 CNS) [µM] | TGI (SF-295 CNS) [µM] | TGI (MDA-MB-435) [µM] | TGI (CAKI-1 renal) [µM] | TGI (NCI-H226 lung) [µM] | TGI (HCT-116 colon) [µM]
COc1ccc2c(c1)c(-c1nc(-c3c[nH]c4ncccc34)cs1)cn2CCCCN1CCCCC1 | 1.83 | 3.5 | 1.52 | 2.93 | 1.43 | 2.9 | 1.81 | 3.5 | 1.8 | 3.35 | 1.6 | 3.02 | – | – | – | –
Cc1nc2ccc(S(=O)(=O)Nc3nccs3)cc2c(=O)n1NS(=O)(=O)c1nccs1 | – | > 100 | – | > 100 | – | > 100 | – | > 100 | – | > 100 | – | > 100 | > 100 | > 100 | > 100 | –
CN(C)CCNC(=O)c1cccc2[nH]c(-c3ccccn3)nc12 | – | > 100 | – | – | – | > 94.8 | – | > 58.4 | – | > 93.6 | – | > 100 | – | 78.1 | 60.8 | > 65.2
CCOC(=O)c1sc2nc(SC)nc(Nc3ccc4c(c3)OCCO4)c2c1N | – | > 100 | – | 29.7 | – | 27.4 | – | > 100 | – | > 100 | – | 58.1 | 42.7 | 49.2 | > 100 | 42.1
CNC(C)C(O)c1ccc2oc3cc(=O)c4ccccc4c-3nc2c1 (centres undefined) | – | 47 | – | > 100 | – | 50.6 | – | 61.4 | – | 33.4 | – | 15.6 | 3.54 | 29.6 | – | 21.8
CCCCC1C=Cn2c(=O)oc3c(OC(C)C)c(C)c(O)c1c32 (centres undefined) | – | 5.1 | – | 14.2 | – | 1.1 | – | 8.39 | – | 8.78 | – | 7.16 | 3.38 | 2.34 | 8.12 | 7.07
O=C1c2ccccc2OCC12OC21C=CC(Cl)=CC1 (centres undefined) | – | – | – | > 100 | – | 55 | – | 47.9 | – | > 100 | – | – | 51.5 | – | > 100 | 43.6
O=C(CBr)c1ccc2cc(Br)c3ccccc3c2c1 | – | > 100 | – | 53.1 | – | – | – | 54.4 | – | 49.9 | – | 56.7 | 42.6 | 38 | 33.6 | > 100
